Source: patent publication US20260324644A1, “HERBICIDE COMPOSITION AND A METHOD FOR BURNDOWN APPLICATION” (UPL Mauritius Limited, priority 2022, published 2026)
Where two headings read alike, the source gives them in different places.

How the values were obtained:
Amaranthus viridis = assay: Greenhouse trial, burndown (non-crop) weed control, Amaranthus viridis; format: in vivo; details: for % Control: 495 g a.i./ha
Experimental: (§1) Methodology: Greenhouse trials were conducted to evaluate the efficacy of the L-glufosinate on broad spectrum weeds at non-crop stage (burndown application).
(§2) The soil used was medium black soil. All treatments were in 3 replications per treatment with a spray volume of about 150 L/ha.
(§3) The percentage efficacy was calculated after 10 days of application (DAA). The target weeds were Amaranthus viridis, E. geniculate, P. oleracea, Brachiaria spp. and the concentration of the herbicide and the results are recorded in Table 1.
(§4) The percentage efficacy was calculated after 10 and 15 days of application (DAA). The herbicidal composition used was L-glufosinate (SL) at 150 g a.i./L. The application rate was 495 g a.i./ha. The target weeds were Amaranthus virids, A. spinosus, C. Album, E. geniculate, P. oleracea, P. hysterophrous, Brachiaria spp., D. retroflexa, E. colonum and the concentration of the herbicide and the results are recorded in Table 2.
(§5) The percentage efficacy was calculated after 10 and 15 days of application (DAA). The herbicidal composition used was L-glufosinate (SL) at 150 g a.i./L and 280 g a.i./L. The application rate was 495 g a.i./ha. The target weeds were Amaranthus viridis, Amaranthus spinosus, Acalypha indica, Digera arvensis, Euphorbia geniculate, Portulaca oleracea, Parthenium hysterophrous, Phyllanthus maderaspatensis and the concentration of the herbicide and the results are recorded in Table 3.

Euphorbia geniculate = assay: Greenhouse trial, burndown (non-crop) weed control, Euphorbia geniculate; format: in vivo; details: for % Control after 10 DAA: Example 1; for % Control: 495 g a.i./ha
Experimental: as §1, §2, §3, §4, §5

Brachiaria spp. = assay: Greenhouse trial, burndown (non-crop) weed control, Brachiaria spp.; format: in vivo; details: for % Control: 495 g a.i./ha
Experimental: as §1, §2, §3, §4
(§6) The percentage efficacy was calculated after 10 and 15 days of application (DAA). The herbicidal composition used was L-glufosinate (SL) at 150 g a.i./L and 280 g a.i./L. The application rate was 495 g a.i./ha. The target weeds were Brachiaria spp., Dinebra retroflexa, Echonochloa colonum and the concentration of the herbicide and the results are recorded in Table 4.

Amaranthus spinosus = assay: Greenhouse trial, burndown (non-crop) weed control, Amaranthus spinosus; format: in vivo; details: 495 g a.i./ha
Experimental: as §1, §2, §4, §5

C. Album = assay: Greenhouse trial, burndown (non-crop) weed control, C. Album; format: in vivo; details: Example 2, SL 150 g a.i./L, 495 g a.i./ha
Experimental: as §1, §2, §4

Portulaca oleracea = assay: Greenhouse trial, burndown (non-crop) weed control, Portulaca oleracea; format: in vivo; details: 495 g a.i./ha
Experimental: as §1, §2, §4, §5

Parthenium hysterophrous = assay: Greenhouse trial, burndown (non-crop) weed control, Parthenium hysterophrous; format: in vivo; details: 495 g a.i./ha
Experimental: as §1, §2, §4, §5

Dinebra retroflexa = assay: Greenhouse trial, burndown (non-crop) weed control, Dinebra retroflexa; format: in vivo; details: 495 g a.i./ha
Experimental: as §1, §2, §4, §6

E. colonum = assay: Greenhouse trial, burndown (non-crop) weed control, E. colonum; format: in vivo; details: Example 2, SL 150 g a.i./L, 495 g a.i./ha
Experimental: as §1, §2, §4

Acalypha indica = assay: Greenhouse trial, burndown (non-crop) weed control, Acalypha indica; format: in vivo; details: 495 g a.i./ha
Experimental: as §1, §2, §5

Digera arvensis = assay: Greenhouse trial, burndown (non-crop) weed control, Digera arvensis; format: in vivo; details: 495 g a.i./ha
Experimental: as §1, §2, §5

[1] = tested on: Phyllanthus maderaspatensis; assay: Greenhouse trial, burndown (non-crop) weed control, Phyllanthus maderaspatensis; format: in vivo; details: 495 g a.i./ha
Experimental: as §1, §2, §5

[2] = tested on: glutamine synthetase (GS); details: role: inhibitor, GS of bacteria and plants, cited from earlier work
plants = details: background statement; cited from earlier work
[3] = Example 1, L-glufosinate (SL) 200 g a.i./L, rate 150 g a.i./ha, 10 DAA
[4] = Example 1, L-glufosinate (SL) 200 g a.i./L, rate 165 g a.i./ha, 10 DAA
[5] = Example 1, L-glufosinate (SL) 200 g a.i./L, rate 200 g a.i./ha, 10 DAA
[6] = Example 1, L-glufosinate (SL) 200 g a.i./L, rate 220 g a.i./ha, 10 DAA
[7] = Example 1, L-glufosinate (SL) 280 g a.i./L, rate 150 g a.i./ha, 10 DAA
[8] = Example 1, L-glufosinate (SL) 280 g a.i./L, rate 165 g a.i./ha, 10 DAA
[9] = Example 1, L-glufosinate (SL) 280 g a.i./L, rate 200 g a.i./ha, 10 DAA
[10] = Example 1, L-glufosinate (SL) 280 g a.i./L, rate 220 g a.i./ha, 10 DAA
[11] = Example 2, SL 150 g a.i./L, 10 DAA
[12] = Example 2, SL 150 g a.i./L, 15 DAA
[13] = Example 3, SL 150 g a.i./L, 10 DAA
[14] = Example 3, SL 150 g a.i./L, 15 DAA
[15] = Example 3, SL 280 g a.i./L, 10 DAA
[16] = Example 3, SL 280 g a.i./L, 15 DAA

SMILES: CP(=O)(O)CC[C@H](N)C(=O)O.N [L-glufosinate, (S)-2-amino-4-(hydroxy(methyl)phosphonoyl)butanoic acid]
- % Control after 10 DAA (Amaranthus viridis; [3]): 100%
- % Control after 10 DAA (Amaranthus viridis; [4]): 100%
- % Control after 10 DAA (Amaranthus viridis; [5]): 100%
- % Control after 10 DAA (Amaranthus viridis; [6]): 100%
- % Control after 10 DAA (Amaranthus viridis; [7]): 100%
- % Control after 10 DAA (Amaranthus viridis; [8]): 100%
- % Control after 10 DAA (Amaranthus viridis; [9]): 100%
- % Control after 10 DAA (Amaranthus viridis; [10]): 100%
- % Control (Amaranthus viridis; [11]): 100%
- % Control (Amaranthus viridis; [12]): 100%
- % Control (Amaranthus viridis; [13]): 100%
- % Control (Amaranthus viridis; [14]): 100%
- % Control (Amaranthus viridis; [15]): 100%
- % Control (Amaranthus viridis; [16]): 100%
- % Control after 10 DAA (Euphorbia geniculate; L-glufosinate (SL) 200 g a.i./L, rate 150 g a.i./ha, 10 DAA, E. geniculate): 93%
- % Control after 10 DAA (Euphorbia geniculate; L-glufosinate (SL) 200 g a.i./L, rate 165 g a.i./ha, 10 DAA, E. geniculate): 95%
- % Control after 10 DAA (Euphorbia geniculate; L-glufosinate (SL) 200 g a.i./L, rate 200 g a.i./ha, 10 DAA, E. geniculate): 97%
- % Control after 10 DAA (Euphorbia geniculate; L-glufosinate (SL) 200 g a.i./L, rate 220 g a.i./ha, 10 DAA, E. geniculate): 93%
- % Control after 10 DAA (Euphorbia geniculate; L-glufosinate (SL) 280 g a.i./L, rate 150 g a.i./ha, 10 DAA, E. geniculate): 92%
- % Control after 10 DAA (Euphorbia geniculate; L-glufosinate (SL) 280 g a.i./L, rate 165 g a.i./ha, 10 DAA, E. geniculate): 90%
- % Control after 10 DAA (Euphorbia geniculate; L-glufosinate (SL) 280 g a.i./L, rate 200 g a.i./ha, 10 DAA, E. geniculate): 95%
- % Control after 10 DAA (Euphorbia geniculate; L-glufosinate (SL) 280 g a.i./L, rate 220 g a.i./ha, 10 DAA, E. geniculate): 93%
- % Control (Euphorbia geniculate; Example 2, SL 150 g a.i./L, 10 DAA, E. geniculate): 100%
- % Control (Euphorbia geniculate; Example 2, SL 150 g a.i./L, 15 DAA, E. geniculate): 100%
- % Control (Euphorbia geniculate; Example 3, SL 150 g a.i./L, 10 DAA, Euphorbia geniculate): 80%
- % Control (Euphorbia geniculate; Example 3, SL 150 g a.i./L, 15 DAA, Euphorbia geniculate): 100%
- % Control (Euphorbia geniculate; Example 3, SL 280 g a.i./L, 10 DAA, Euphorbia geniculate): 90%
- % Control (Euphorbia geniculate; Example 3, SL 280 g a.i./L, 15 DAA, Euphorbia geniculate): 100%
- % Control after 10 DAA (Brachiaria spp.; [3]): 100%
- % Control after 10 DAA (Brachiaria spp.; [4]): 100%
- % Control after 10 DAA (Brachiaria spp.; [5]): 100%
- % Control after 10 DAA (Brachiaria spp.; [6]): 100%
- % Control after 10 DAA (Brachiaria spp.; [7]): 100%
- % Control after 10 DAA (Brachiaria spp.; [8]): 100%
- % Control after 10 DAA (Brachiaria spp.; [9]): 100%
- % Control after 10 DAA (Brachiaria spp.; [10]): 100%
- % Control (Brachiaria spp.; [11]): 93%
- % Control (Brachiaria spp.; [12]): 100%
- % Control (Brachiaria spp.; Example 4, SL 150 g a.i./L, 10 DAA): 100%
- % Control (Brachiaria spp.; Example 4, SL 150 g a.i./L, 15 DAA): 100%
- % Control (Brachiaria spp.; Example 4, SL 280 g a.i./L, 10 DAA): 100%
- % Control (Brachiaria spp.; Example 4, SL 280 g a.i./L, 15 DAA): 100%
- % Control (Amaranthus spinosus; Example 2, SL 150 g a.i./L, 10 DAA, A. spinosus): 100%
- % Control (Amaranthus spinosus; Example 2, SL 150 g a.i./L, 15 DAA, A. spinosus): 100%
- % Control (Amaranthus spinosus; Example 3, SL 150 g a.i./L, 10 DAA, Amaranthus spinosus): 100%
- % Control (Amaranthus spinosus; Example 3, SL 150 g a.i./L, 15 DAA, Amaranthus spinosus): 100%
- % Control (Amaranthus spinosus; Example 3, SL 280 g a.i./L, 10 DAA, Amaranthus spinosus): 100%
- % Control (Amaranthus spinosus; Example 3, SL 280 g a.i./L, 15 DAA, Amaranthus spinosus): 100%
- % Control (C. Album; 10 DAA): 100%
- % Control (C. Album; 15 DAA): 100%
- % Control (Portulaca oleracea; Example 2, SL 150 g a.i./L, 10 DAA, P. oleracea): 88%
- % Control (Portulaca oleracea; Example 2, SL 150 g a.i./L, 15 DAA, P. oleracea): 82%
- % Control (Portulaca oleracea; Example 3, SL 150 g a.i./L, 10 DAA, Portulaca oleracea): 100%
- % Control (Portulaca oleracea; Example 3, SL 150 g a.i./L, 15 DAA, Portulaca oleracea): 100%
- % Control (Portulaca oleracea; Example 3, SL 280 g a.i./L, 10 DAA, Portulaca oleracea): 100%
- % Control (Portulaca oleracea; Example 3, SL 280 g a.i./L, 15 DAA, Portulaca oleracea): 100%
- % Control (Parthenium hysterophrous; Example 2, SL 150 g a.i./L, 10 DAA, P. hysterophrous): 100%
- % Control (Parthenium hysterophrous; Example 2, SL 150 g a.i./L, 15 DAA, P. hysterophrous): 100%
- % Control (Parthenium hysterophrous; Example 3, SL 150 g a.i./L, 10 DAA, Parthenium hysterophrous): 93%
- % Control (Parthenium hysterophrous; Example 3, SL 150 g a.i./L, 15 DAA, Parthenium hysterophrous): 93%
- % Control (Parthenium hysterophrous; Example 3, SL 280 g a.i./L, 10 DAA, Parthenium hysterophrous): 97%
- % Control (Parthenium hysterophrous; Example 3, SL 280 g a.i./L, 15 DAA, Parthenium hysterophrous): 97%
- % Control (Dinebra retroflexa; Example 2, SL 150 g a.i./L, 10 DAA, D. retroflexa): 100%
- % Control (Dinebra retroflexa; Example 2, SL 150 g a.i./L, 15 DAA, D. retroflexa): 100%
- % Control (Dinebra retroflexa; Example 4, SL 150 g a.i./L, 10 DAA, Dinebra retroflexa): 83%
- % Control (Dinebra retroflexa; Example 4, SL 150 g a.i./L, 15 DAA, Dinebra retroflexa): 70%
- % Control (Dinebra retroflexa; Example 4, SL 280 g a.i./L, 10 DAA, Dinebra retroflexa): 83%
- % Control (Dinebra retroflexa; Example 4, SL 280 g a.i./L, 15 DAA, Dinebra retroflexa): 70%
- % Control (E. colonum; 10 DAA): 90%
- % Control (E. colonum; 15 DAA): 90%
- % Control (Acalypha indica; [13]): 80%
- % Control (Acalypha indica; [14]): 100%
- % Control (Acalypha indica; [15]): 87%
- % Control (Acalypha indica; [16]): 100%
- % Control (Digera arvensis; [13]): 100%
- % Control (Digera arvensis; [14]): 100%
- % Control (Digera arvensis; [15]): 100%
- % Control (Digera arvensis; [16]): 100%
- % Control [1, 13]: 93%
- % Control [1, 14]: 100%
- % Control [1, 15]: 97%
- % Control [1, 16]: 97%
- inhibition of glutamine synthetase (GS) ([2]; listed as L-isomer of glufosinate): competitive inhibitor
- inhibition of glutamine synthetase (GS) ([2]; listed as L-isomer): only the L-isomer inhibits GS
- herbicidal activity (plants): herbicidally active
